Reference: the CheMixHub ionic liquid set
Several values for one entry are separate records, joined by “and”; a condition that tells them apart may be missing. Equal entries are not always repeated.

Assay: xn = mol fraction of the nth substance listed

CC(C)=O + CC[n+]1ccn(C)c1C.F[B-](F)(F)F
101.3 kPa, x2 = 0
Settings | viscosity [mPa·s]
293.15 K | 0.325
298.15 K | 0.303
303.15 K | 0.297
308.15 K | 0.283
313.15 K | 0.269
318.15 K | 0.251
323.15 K | 0.244

CCCCCCCCCCCCCCCC[n+]1ccccc1.O=C([O-])C(O)c1ccccc1 + NCC(=O)O + O
electrical conductivity [S/m], 101 kPa
Settings | 293.15 K | 298.15 K | 303.15 K | 308.15 K | 313.15 K
x1 = 1.08e-06, x2 = 0 | 0.00061 | 0.00068 | 0.00076 | 0.00083 | 0.0009
x1 = 1.09e-06, x2 = 0.001799 | 0.00103 | 0.00118 | 0.0013 | 0.0015 | 0.0017
x1 = 1.26e-06, x2 = 0.0009002 | 0.00083 | 0.00094 | 0.00106 | 0.0012 | 0.0013
x1 = 1.98e-06, x2 = 0 | 0.001 | 0.0012 | 0.0013 | 0.0014 | 0.0016
x1 = 2.17e-06, x2 = 0.001799 | 0.00151 | 0.00172 | 0.0019 | 0.0022 | 0.0024
x1 = 2.35e-06, x2 = 0.0009002 | 0.00125 | 0.00142 | 0.0016 | 0.0018 | 0.0019
x1 = 2.88e-06, x2 = 0 | 0.00147 | 0.0016 | 0.0018 | 0.002 | 0.0022
x1 = 3.26e-06, x2 = 0.001799 | 0.00188 | 0.0022 | 0.0024 | 0.0027 | 0.003
x1 = 3.43e-06, x2 = 0.0009002 | 0.00163 | 0.00185 | 0.0021 | 0.0023 | 0.0025
x1 = 3.96e-06, x2 = 0 | 0.0019 | 0.0022 | 0.0024 | 0.0026 | 0.0029
x1 = 4.35e-06, x2 = 0.001799 | 0.00233 | 0.00265 | 0.0029 | 0.0033 | 0.0036
x1 = 4.52e-06, x2 = 0.0009002 | 0.00209 | 0.00237 | 0.0026 | 0.0029 | 0.0032
x1 = 4.69e-06, x2 = 0 | 0.0023 | 0.0026 | 0.0029 | 0.0031 | 0.0035
x1 = 5.26e-06, x2 = 0.001799 | 0.00273 | 0.00308 | 0.0034 | 0.0038 | 0.0042
x1 = 5.78e-06, x2 = 0.0009002 | 0.00258 | 0.00291 | 0.0032 | 0.0036 | 0.004
x1 = 5.95e-06, x2 = 0 | 0.00281 | 0.0032 | 0.0035 | 0.0038 | 0.0042
x1 = 6.52e-06, x2 = 0.001799 | 0.0032 | 0.00363 | 0.004 | 0.0045 | 0.005
x1 = 7.05e-06, x2 = 0.0009002 | 0.00305 | 0.00343 | 0.0038 | 0.0042 | 0.0046
x1 = 7.21e-06, x2 = 0 | 0.00341 | 0.0038 | 0.0042 | 0.0046 | 0.0051
x1 = 8.16e-06, x2 = 0.001799 | 0.00379 | 0.00429 | 0.0048 | 0.0053 | 0.0059
x1 = 8.31e-06, x2 = 0.0009002 | 0.00355 | 0.00401 | 0.0045 | 0.0049 | 0.0054
x1 = 8.83e-06, x2 = 0 | 0.00406 | 0.0046 | 0.005 | 0.0055 | 0.006
x1 = 9.79e-06, x2 = 0.001799 | 0.00435 | 0.00491 | 0.0055 | 0.0061 | 0.0068
x1 = 9.94e-06, x2 = 0.0009002 | 0.00404 | 0.00455 | 0.0051 | 0.0056 | 0.0063
x1 = 1.045e-05, x2 = 0 | 0.00469 | 0.0053 | 0.0058 | 0.0065 | 0.0071
x1 = 1.124e-05, x2 = 0.001799 | 0.00472 | 0.00536 | 0.006 | 0.0067 | 0.0075
x1 = 1.138e-05, x2 = 0.0009002 | 0.00443 | 0.00502 | 0.00561 | 0.0062 | 0.007
x1 = 1.207e-05, x2 = 0 | 0.00516 | 0.0058 | 0.0064 | 0.0071 | 0.0079
x1 = 1.269e-05, x2 = 0.001799 | 0.00515 | 0.00581 | 0.0065 | 0.0073 | 0.0081
x1 = 1.283e-05, x2 = 0.0009002 | 0.00481 | 0.00543 | 0.00607 | 0.0068 | 0.0076
x1 = 1.351e-05, x2 = 0 | 0.00562 | 0.00631 | 0.007 | 0.0077 | 0.0085
x1 = 1.41e-05, x2 = 0.0009002 | 0.00512 | 0.0058 | 0.00647 | 0.0072 | 0.008
x1 = 1.414e-05, x2 = 0.001799 | 0.00553 | 0.00625 | 0.007 | 0.0078 | 0.0087
x1 = 1.478e-05, x2 = 0 | 0.00603 | 0.0068 | 0.0075 | 0.0083 | 0.0092
x1 = 1.54e-05, x2 = 0.001799 | 0.00584 | 0.0066 | 0.0074 | 0.0083 | 0.0092
x1 = 1.554e-05, x2 = 0.0009002 | 0.0055 | 0.00621 | 0.0069 | 0.0077 | 0.0086
x1 = 1.622e-05, x2 = 0 | 0.00644 | 0.0072 | 0.008 | 0.0089 | 0.0098
x1 = 1.667e-05, x2 = 0.001799 | 0.00618 | 0.00697 | 0.0078 | 0.0087 | 0.0097
x1 = 1.681e-05, x2 = 0.0009002 | 0.0058 | 0.00657 | 0.0073 | 0.0082 | 0.0091
x1 = 1.766e-05, x2 = 0 | 0.00687 | 0.0077 | 0.0085 | 0.0094 | 0.0104

CCCCCCCCCO + CCCC[n+]1ccn(C)c1.O=S(=O)([N-]S(=O)(=O)C(F)(F)F)C(F)(F)F
Settings | viscosity [mPa·s]
298 K, 100 kPa, x2 = 0.9008 | 41.28

C[S+](C)C.O=S(=O)([N-]S(=O)(=O)C(F)(F)F)C(F)(F)F + CC#N
101 kPa
Settings | electrical conductivity
264.85 K, x2 = 0.87 | 3.61 S/m
273.15 K, x2 = 0.87 | 4.06 S/m
298.15 K, x1 = 0.0001 | 0.027 S/m and 0.059 S/m
298.15 K, x1 = 0.0005 | 0.208 S/m
323.15 K, x2 = 0.87 | 6.94 S/m

O=[N+]([O-])[O-].[Li+] + CC[n+]1ccn(C)c1.O=S(=O)([O-])C(F)(F)F
electrical conductivity [S/m], 101 kPa
Settings | x2 = 0.8748 | x2 = 0.9165 | x2 = 0.9576 | x2 = 0.9746
288.15 K | 0.38 | 0.454 | 0.563 | 0.562
298.15 K | 0.587 | 0.68 | 0.818 | 0.816
333.15 K | 1.69 | 1.85 | 2.07 | 2.1

COP(=O)([O-])OC.Cn1cc[n+](C)c1 + CC(C)O
101 kPa
Settings | viscosity [mPa·s]
293.15 K, x2 = 0 | 416
293.15 K, x2 = 0.0999 | 357
298.15 K, x2 = 0.2032 | 183
298.15 K, x2 = 0.5002 | 53.3
298.15 K, x2 = 0.7009 | 17.98
303.15 K, x2 = 0.5002 | 43.28
308.15 K, x2 = 0.7009 | 13.26
308.15 K, x2 = 0.9013 | 3.819
313.15 K, x2 = 0 | 119.2
313.15 K, x2 = 0.0999 | 106.6
313.15 K, x2 = 0.2032 | 82.2
313.15 K, x2 = 0.301 | 63.1
318.15 K, x2 = 0.2032 | 66.1
318.15 K, x2 = 0.5002 | 25.15
318.15 K, x2 = 0.7009 | 10.13
323.15 K, x2 = 0.5002 | 21.5
323.15 K, x2 = 0.9013 | 2.638

CC(=O)[O-].CCCC[N+](CCCC)(CCCC)CCCC + CC(=O)O + O
303.15 K, 100 kPa
Settings | viscosity [mPa·s]
x2 = 0, x3 = 0.0263 | 680
x2 = 0.0971, x3 = 0.0291 | 460
x2 = 0.194, x3 = 0.0301 | 297
x2 = 0.3213, x3 = 0.0263 | 169
x2 = 0.4883, x3 = 0.0234 | 83
x2 = 0.6588, x3 = 0.0167 | 41
x2 = 0.7897, x3 = 0.0128 | 25
x2 = 0.8911, x3 = 0.0099 | 19
